Where “and” joins values, the source holds several entries; their conditions need not be identical. Equal values may be shown once. Read-outs that look alike come from different tables or passages of the source. Starred links: 1 amine or outer side, 2 acyl side, 3 side chain; linkers in the order of their positions; H or OH if unused. Positions of bridges follow the written chain, without caps; N, C: chain ends. Non-standard residues stand in square brackets, D forms with d. Residues, ends and D or L forms follow the SMILES beside them. Chains are numbered I, II in the order given. Actinocin(9to1) = Cc1c2oc3c(C)ccc(C(=O)[*:1])c3nc-2c(C(=O)[*:2])c(N)c1=O; NMeV = CN[C@H](C(=O)O)C(C)C; Sar = CNCC(=O)O
Legend:
[1] = tested on: Medial smooth muscle cells (SMC) from rat aorta; assay: Inhibition of SMC proliferation (thymidine incorporation); assay type: cell-based; conditions: read-out: IC50 (concentration at which 50% of the cells stop proliferating)
Procedure: Medial smooth muscle cells (SMC) were isolated from rat aorta and cultured according to explant methods known to one of ordinary skill in the art. Cells were harvested via trypsinization and subcultivated. Cells were identified as vascular SMC through their characteristic hill-and-valley growth pattern as well as indirect immunofluorescence with monoclonal anti SMC α-actin. Studies were performed with cells at passage 3-4. SMC monlayers were established on 24 well culture dishes, scrape wounded and treated with actinomycin D, mytomycin and docetaxel. The cells were exposed to the drug solution of different concentrations for 2 hours and then washed with buffered saline solution. The proliferation of the cells was quantified by standard technique of thymidine incorporation.
The IC50 (concentration at which 50% of the cells stop proliferating) of actinomycin D was 10^−9M as compared to 5×10^−5M for mitomycin and 10^−6M for docetaxel.

[2] = tested on: neointimal formation in the coronary arteries; assay: Porcine coronary stent injury model, drug delivered with microporous balloon catheter; assay type: in vivo, Domestic swine
Procedure: Porcine coronary models were used to assess the degree of the inhibition of neointimal formation in the coronary arteries of a porcine stent injury model by Actinomycin D, delivered with a microporous balloon catheter (1×10^6 pores/cm^2 with size ranging from 0.2-0.8 micron).
The preclinical animal testing was performed in accordance with the NIH Guide for Care and Use of Laboratory Animals. Domestic swine were utilized to evaluate effect of the drug on the inhibition of the neointimal formation. Each testing procedure, excluding the angiographic analysis at the follow-up endpoints, was conducted using sterile techniques. During the study procedure, the activated clotting time (ACT) was monitored regularly to ensure appropriate anticoagulation. Base line blood samples were collected for each animal before initiation of the procedure. Quantitative coronary angiographic analysis (QCA) and intravascular ultrasound (IVUS) analysis was used for vessel size assessment.
The vessels at the sites of the delivery were denuded by inflation of the PTCA balloons to 1:1 balloon to artery ratio and moving the balloons back and forth 5 times. Actinomycin D was delivered to the denuded sites at 3.5 atm (3.61 kg/sq. cm) for 2 minutes using the microporous balloon catheters before stent deployment. The average volume of delivery was about 3.3+/−1.2 ml. Following drug delivery, stents were deployed at the delivery site such that final stent to artery ratio was 1.1:1.
QCA and IVUS analyses were used for stent deployment guidance. Pre-stenting IVUS measurements of the lumen size at the targeted vessel sites were performed for determination of the balloon (size) inflation pressure. Quantitative analysis of the stented coronary arteries to compare pre-stenting, post-stenting, follow-up minimal luminal diameters, stent recoil, and balloon/stent to artery ratio were performed. Following stent implantation and final angiogram, all devices were withdrawn and the wounds closed; the animals were allowed to recover from anesthesia as managed by the attending veterinarian or animal care professionals at the research center.
Upon return to the research laboratory at the 28-day endpoint, angiographic assessments were performed. Coronary artery blood flow was assessed and the stented vessels were evaluated to determine minimal lumen diameter. The animals were euthanized following this procedure at the endpoint. Following euthanasia, the hearts were pressure perfusion fixed with formalin and prepared for histological analysis, encompassing light microscopy, and morphometry. Morphometric analysis of the stented arteries included assessment of the position of the stent struts and determination of vessel/lumen areas, percent (%) stenosis, injury scores, intimal and medial areas and intima/media ratios. Percent stenosis is quantitated by the following equation: 100(IEL area−lumen area)/IEL area where IEL is the internal elastic lamia.
The control group of animals received delivery of water instead of the drug. The test group of animals received actinomycin D in two different concentration of 10^−5M and 10^−4M. […] FIGS. 2A and 2B illustrate sample pictures of the histology slides of the coronary vessels from the control and the Dose 1 group, respectively.

[3] = tested on: porcine coronary arteries (EEL/IEL area); assay: Positive remodeling by stents coated with EVAL impregnated with actinomycin D in porcine coronary arteries; assay type: in vivo
From the text: “Positive remodeling” is generally defined as the ability of the vessel walls to structurally adapt, by increasing in lumen size, to chronic stimuli. A positively remodeled lumen wall has a greater diameter or size as compared to a lumen wall which has not been subjected to the remodeling effect. Accordingly, the flow of blood through the remodeled site is increased—flow which would have otherwise been reduced because of, for example, the presence of plaque build-up or migration and proliferation of cells. The index of remodeling is defined by the ratio of the area circumscribed by the external elastic lamia (EEL) of the lesion site to the area circumscribed by the EEL of a reference site. As a result of the positive remodeling of the EEL, the internal elastic lamina (IEL), in response, can also increases in area or diameter.
In vivo data is provided illustrated positive remodeling caused by the application of actinomycin D. Stents coated with EVAL impregnated with actinomycin D and a control group of stents coated with EVAL free from actinomycin D were implanted in porcine coronary arteries. The animals were sacrificed at the end of 28 days. […] The index of remodeling was 1.076 (8.54/7.94).
FIGS. 3A and 3B illustrate sample pictures of the histology slides of the coronary vessels from the control group 64 RCA ([…]) and the actinomycin D loaded stent group 68 LAD (Left Anterior Descending), respectively. The stent used was an Advanced Cardiovascular Systems Multi-Link Duet™ (stainless steel). As is illustrated by FIG. 3B, the positive remodeling of IEL 10, caused by the application of actinomycin D, creates a gap between stent struts 12 and IEL 10. Thrombus deposites, illustrated by reference number 14, are formed in the gap over time. The use of a self-expandable stent eliminates the formation of the gap as the stent self-expands in response to the positive remodeling of IEL. Thrombus deposits can be, accordingly, eliminated.

[4] = rat aortic SMC, scrape wounded, 2 hours drug exposure, thymidine incorporation
[5] = Dose 1, 1E−05 M, n = 30, 28-day endpoint
[6] = Dose 2, 1E−04 M, n = 21, 28-day endpoint
[7] = average of 24 vessel sections, 28 days
[8] = one value per vessel section (ID # in the cell to the left), 28 days

SMILES	IC50 [1, 4]	IC50 ([1]; Rattus norvegicus, 2 h)	Percent Diameter Stenosis, angiographic data (QCA) ([2]; Dose 1, 1E−05 M, n = 10, 28-day endpoint)	Percent Stenosis (IEL area-lumen area)/IEL area, histomorphometric data [2, 5]	Residual Lumen (Lumen area)/IEL area, histomorphometric data [2, 5]	Percent Diameter Stenosis, angiographic data (QCA) ([2]; Dose 2, 1E−04 M, n = 7, 28-day endpoint)	Percent Stenosis (IEL area-lumen area)/IEL area, histomorphometric data [2, 6]	Residual Lumen (Lumen area)/IEL area, histomorphometric data [2, 6]	EEL area compared with control vessels ([3]; 28 days, actinomycin D-loaded vessels vs control vessels)	AVG % EEL growth ([3]; ActD vs EVAL)	AVG % IEL growth ([3]; ActD vs EVAL)	index of remodeling ([3]; EEL area ratio 8.54/7.94, actinomycin D-loaded vs EVAL control)	EEL Area, AVG [3, 7]	IEL Area, AVG [3, 7]	EEL Area, individual vessel section [3, 8]	IEL Area, individual vessel section [3, 8]
CO[C@@]12[C@H](COC(N)=O)C3=C(C(=O)C(C)=C(N)C3=O)N1C[C@@H]1N[C@@H]12 [mitomycin]	50000 nM															
CC(=O)O[C@@]12CO[C@@H]1C[C@H](O)[C@@]1(C)C(=O)[C@H](O)C3=C(C)[C@@H](OC(=O)[C@H](O)[C@@H](NC(=O)OC(C)(C)C)c4ccccc4)C[C@@](O)([C@@H](OC(=O)c4ccccc4)[C@H]21)C3(C)C [docetaxel]	1000 nM															
Cc1c2oc3c(C)ccc(C(=O)N[C@@H]4C(=O)N[C@H](C(C)C)C(=O)N5CCC[C@H]5C(=O)N(C)CC(=O)N(C)[C@@H](C(C)C)C(=O)O[C@@H]4C)c3nc-2c(C(=O)N[C@@H]2C(=O)N[C@H](C(C)C)C(=O)N3CCC[C@H]3C(=O)N(C)CC(=O)N(C)[C@@H](C(C)C)C(=O)O[C@@H]2C)c(N)c1=O [actinomycin D] (I: T[dV]P[Sar][NMeV] / II: T[dV]P[Sar][NMeV]; ester I:1-I:C, II:1-II:C; linker I:N-II:N via Actinocin(9to1))		1 nM	36.8 +/− 9.7%	51.8 +/− 13.8%	0.49 +/− 0.14	32.3+/−11.7%	54.1 +/− 11.7%	0.46 +/− 0.08	statistically significantly greater	7.486%	13.18%	1.076	8.5425 mm^2	7.4727 mm2	7.4498 mm^2 and 8.2509 mm^2 and 7.7342 mm^2 and 7.9207 mm^2 and 6.9926 mm^2 and 8.3883 mm^2 and 7.8546 mm^2 and 9.2545 mm^2 and 9.2515 mm^2 and 8.7854 mm^2 and 9.5164 mm^2 and 9.1504 mm^2 and 9.6679 mm^2 and 9.1237 mm^2 and 9.9849 mm^2 and 9.4765 mm^2 and 7.4424 mm^2 and 9.1462 mm^2 and 8.9504 mm^2 and 8.9117 mm^2 and 8.7533 mm^2 and 7.3249 mm^2 and 7.1061 mm^2 and 8.5830 mm^2	6.3785 mm2 and 7.5206 mm2 and 6.9992 mm2 and 6.9632 mm2 and 6.0418 mm2 and 7.4794 mm2 and 6.2324 mm2 and 8.3785 mm2 and 8.5819 mm2 and 8.0964 mm2 and 8.6879 mm2 and 8.0914 mm2 and 8.7181 mm2 and 8.0273 mm2 and 8.5222 mm2 and 8.3796 mm2 and 6.4219 mm2 and 7.7757 mm2 and 7.5392 mm2 and 7.6573 mm2 and 6.9749 mm2 and 6.2815 mm2 and 5.9760 mm2 and 7.6195 mm2
